Results: US7265245B2, “Compounds useful for the treatment of diseases associated with the formation of amyloid fibrils” (Innovaprotean, S.L, priority 2003, dated 2007)

Molecular target: Y78F hTTR mutant (Homo sapiens, UniProt P02766, Y98F)
Experiment: turbidimetric test of amyloidogenesis (fibril formation) inhibiting activity in vitro
Type: biochemical
Settings: for RA (%): % reduction of the rate of aggregation at high inhibitor concentration: RA(%)=(1−A/(A+B))·100, compared with the rate in the absence of inhibitor; for IC50: inhibitor concentration at which the aggregation was half that in the absence of inhibitor, 0 to 40 μM inhibitor, 37° C., acid-induced (dilution buffer pH 4.2); for Ψ: initial slope of curve v0 versus [I]: sensitivity of the aggregation process to the inhibitor, higher = greater inhibiting effect
Experimental: The compounds to be tested as inhibitors were dissolved in DMSO at a concentration of 1.5 mM. The working solution was prepared by 1 to 4 dilution of the previous solution in a water/DMSO mixture (2:1). […] The incubation buffer was 10 mM sodium phosphate, 100 mM potassium chloride, 1 mM EDTA, […]. The dilution buffer was 400 mM sodium acetate, 100 mM potassium chloride, 1 mM EDTA, pH 4.2. The test protocol for an inhibitor was as follows: 20 μl of the protein solution was dispensed in 7 wells of a 96-well microplate. Different volumes of the inhibitor working solution were added to each of the wells to obtain end concentrations of 0 to 40 μM. Incubation buffer was then added to each well up to an end volume of 100 μl. The microplate was incubated at 37° C. in the microplate reader provided with thermostatting and stirring. Incubation proceeded for 30 min at 37° C. with stirring for 15 seconds every minute. 100 μl of dilution buffer was then added to every well, and the mixture was incubated at 37° C. with stirring for 15 seconds every minute in the microplate reader and absorbance was monitored at 330 nm for 1 hour 30 minutes at intervals of 1 minute. The data of absorbance versus time for every well were collected and analysed with the Microsoft Excel program. All tests were done in duplicate.
1.—Initial fibril formation rate. From the absorbance readings at 330 nm with the incubation time for every well, the initial fibril formation rate was calculated as the slope of the initial linear portion of the curve. Thus, the aggregation rate was obtained at every inhibitor concentration. 2.—Aggregation rate versus inhibitor concentration.
The adjusted parameters were: A (in units of absorbance per hour), residual aggregation rate at high inhibitor concentration; B (in units of absorbance per hour), amplitude or maximum reduction of the aggregation rate; and C (in μM^−1) the exponential constant. A+B was the aggregation rate in the absence of inhibitor (maximum aggregation rate). From these parameters, other parameters were extracted that characterised every inhibitor with regard to its capacity and effectiveness in inhibiting fibril formation: • IC50: inhibitor concentration (μM) at which the aggregation was half that in the absence of inhibitor; • Ψ: initial slope of curve v0 versus [I], which reflected the sensitivity of the aggregation process to the inhibitor.

For `NC(=O)c1cc(-c2ccc(F)cc2F)ccc1O` [Diflunisal amide], the “RA (%): % reduction of the rate of aggregation at high inhibitor concentration” value was 10%, the IC50 was over 100 µM and the “Ψ: initial slope of curve v0 versus [I]” value was 0.009 UA · hr^−1 · μM^−1.
`O=C(O)CNC(=O)c1cc(-c2ccc(F)cc2F)ccc1O` [Diflunisal glycine] was tested, and the “RA (%): % reduction of the rate of aggregation at high inhibitor concentration” value was 28%, the IC50 was over 100 µM and the “Ψ: initial slope of curve v0 versus [I]” value was 0.011 UA · hr^−1 · μM^−1.
`COC(=O)c1cc(-c2ccc(F)cc2F)ccc1O` [Diflunisal methylester] was tested, and the “RA (%): % reduction of the rate of aggregation at high inhibitor concentration” value was 24%, the IC50 was over 100 µM and the “Ψ: initial slope of curve v0 versus [I]” value was 0.011 UA · hr^−1 · μM^−1.
For `O=C(O)c1cc(-c2ccc(F)cc2F)ccc1O` [Diflunisal, 5-(2,4-difluorophenyl)salicylic acid], the “RA (%): % reduction of the rate of aggregation at high inhibitor concentration” value was 84% and the “Ψ: initial slope of curve v0 versus [I]” value was 0.036 UA · hr^−1 · μM^−1.
For `NC(=O)c1cc(-c2ccc(F)cc2F)cc(I)c1O` [Iododiflunisalamide, 5-(2,4-difluorophenyl)-3-iodo-salicylamide], the “RA (%): % reduction of the rate of aggregation at high inhibitor concentration” value was 84%, the IC50 was 11.7 µM and the “Ψ: initial slope of curve v0 versus [I]” value was 0.041 UA · hr^−1 · μM^−1.
In the case of `COC(=O)c1cc(-c2ccc(F)cc2F)cc(I)c1O` [Iododiflunisalmethyl ester, methyl 5-(2,4-difluorophenyl)-3-iodo-salicylate], the “RA (%): % reduction of the rate of aggregation at high inhibitor concentration” value is reported as 98%, the IC50 is reported as 16.7 µM and the “Ψ: initial slope of curve v0 versus [I]” value is reported as 0.027 UA · hr^−1 · μM^−1.
With “N-[5-(2,4-difluorophenyl)-3-iodo-salicyloyl]glycine [Iododiflunisalglycine]” the “RA (%): % reduction of the rate of aggregation at high inhibitor concentration” value was 100%, the IC50 was 11.2 µM and the “Ψ: initial slope of curve v0 versus [I]” value was 0.040 UA · hr^−1 · μM^−1.
